Assay results published in the kinase profiling compilation of Christmann-Franck et al. (2016).

Key:
Test in all cases: KINOMEscan competition binding
Conditions in all cases: compound 10.0 µM
STK25 (human) = STK25 (human) (UniProt O00506)
ROCK2 (human) = ROCK2 (human) (UniProt O75116)
[1] = system: PIK3CA (human), P42336 [E545K]
MST1R (human) = MST1R (human) (UniProt Q04912)
RPS6KA1 KD2 (human) = RPS6KA1 KD2 (human) (UniProt Q15418)
NEK9 (human) = NEK9 (human) (UniProt Q8TD19)
IKBKE (human) = IKBKE (human) (UniProt Q14164)
[2] = target: TYK2 JH2 pseudokinase (human) (UniProt P29597)
BMP2K (human) = BMP2K (human) (UniProt Q9NSY1)
INSRR (human) = INSRR (human) (UniProt P14616)
MAPK7 (human) = MAPK7 (human) (UniProt Q13164)
FGFR3 (human) = FGFR3 (human) (UniProt P22607)
EPHA8 (human) = EPHA8 (human) (UniProt P29322)
PRKD3 (human) = PRKD3 (human) (UniProt O94806)
BRSK1 (human) = BRSK1 (human) (UniProt Q8TDC3)
PAK1 (human) = PAK1 (human) (UniProt Q13153)
RPS6KA4 KD1 (human) = RPS6KA4 KD1 (human) (UniProt O75676)
MAPK15 (human) = MAPK15 (human) (UniProt Q8TD08)
PAK2 (human) = PAK2 (human) (UniProt Q13177)
LATS1 (human) = LATS1 (human) (UniProt O95835)
TNK2 (human) = TNK2 (human) (UniProt Q07912)
MUSK (human) = MUSK (human) (UniProt O15146)
MAPKAPK2 (human) = MAPKAPK2 (human) (UniProt P49137)
TXK (human) = TXK (human) (UniProt P42681)
[3] = target: JAK1 JH2 pseudokinase (human) (UniProt P23458)
MAP3K7 (human) = MAP3K7 (human) (UniProt O43318)
INSR (human) = INSR (human) (UniProt P06213)
MKNK2 (human) = MKNK2 (human) (UniProt Q9HBH9)
TAOK1 (human) = TAOK1 (human) (UniProt Q7L7X3)
MAP3K5 (human) = MAP3K5 (human) (UniProt Q99683)
CAMK4 (human) = CAMK4 (human) (UniProt Q16566)
MAP3K10 (human) = MAP3K10 (human) (UniProt Q02779)
MYLK4 (human) = MYLK4 (human) (UniProt Q86YV6)
PIK3CD (human) = PIK3CD (human) (UniProt O00329)
MAPK8 (human) = MAPK8 (human) (UniProt P45983)
YES1 (human) = YES1 (human) (UniProt P07947)
FLT4 (human) = FLT4 (human) (UniProt P35916)
FER (human) = FER (human) (UniProt P16591)
PDGFRB (human) = PDGFRB (human) (UniProt P09619)
CAMK2A (human) = CAMK2A (human) (UniProt Q9UQM7)
[4] = system: FLT3 (human), P36888 [D835H]
[5] = system: RET (human), P07949 [V804M]

Sequence of FGFR3 (human) (P22607 whole entry, looked up): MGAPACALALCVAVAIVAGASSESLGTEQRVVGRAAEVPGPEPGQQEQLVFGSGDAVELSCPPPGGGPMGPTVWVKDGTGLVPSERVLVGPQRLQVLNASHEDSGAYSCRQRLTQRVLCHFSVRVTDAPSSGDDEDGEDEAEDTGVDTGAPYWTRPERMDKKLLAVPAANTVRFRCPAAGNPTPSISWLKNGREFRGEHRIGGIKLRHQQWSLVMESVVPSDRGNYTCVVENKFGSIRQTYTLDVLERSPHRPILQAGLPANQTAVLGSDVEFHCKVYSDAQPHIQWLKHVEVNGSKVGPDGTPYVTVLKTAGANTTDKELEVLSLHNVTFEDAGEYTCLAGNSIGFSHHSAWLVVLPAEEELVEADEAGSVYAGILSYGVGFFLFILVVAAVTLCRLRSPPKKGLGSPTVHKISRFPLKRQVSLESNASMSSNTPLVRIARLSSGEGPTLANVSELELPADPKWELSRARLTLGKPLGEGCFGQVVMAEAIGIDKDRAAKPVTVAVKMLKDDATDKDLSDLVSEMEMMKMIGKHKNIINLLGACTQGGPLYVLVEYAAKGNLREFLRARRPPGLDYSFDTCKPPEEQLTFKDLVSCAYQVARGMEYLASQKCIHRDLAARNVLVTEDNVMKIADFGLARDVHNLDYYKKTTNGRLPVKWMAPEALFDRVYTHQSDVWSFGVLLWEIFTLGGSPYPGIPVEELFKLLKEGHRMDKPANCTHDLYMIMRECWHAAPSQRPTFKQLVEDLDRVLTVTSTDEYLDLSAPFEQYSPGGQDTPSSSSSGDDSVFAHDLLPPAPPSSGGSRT
Sequence of MUSK (human) (O15146 whole entry, looked up): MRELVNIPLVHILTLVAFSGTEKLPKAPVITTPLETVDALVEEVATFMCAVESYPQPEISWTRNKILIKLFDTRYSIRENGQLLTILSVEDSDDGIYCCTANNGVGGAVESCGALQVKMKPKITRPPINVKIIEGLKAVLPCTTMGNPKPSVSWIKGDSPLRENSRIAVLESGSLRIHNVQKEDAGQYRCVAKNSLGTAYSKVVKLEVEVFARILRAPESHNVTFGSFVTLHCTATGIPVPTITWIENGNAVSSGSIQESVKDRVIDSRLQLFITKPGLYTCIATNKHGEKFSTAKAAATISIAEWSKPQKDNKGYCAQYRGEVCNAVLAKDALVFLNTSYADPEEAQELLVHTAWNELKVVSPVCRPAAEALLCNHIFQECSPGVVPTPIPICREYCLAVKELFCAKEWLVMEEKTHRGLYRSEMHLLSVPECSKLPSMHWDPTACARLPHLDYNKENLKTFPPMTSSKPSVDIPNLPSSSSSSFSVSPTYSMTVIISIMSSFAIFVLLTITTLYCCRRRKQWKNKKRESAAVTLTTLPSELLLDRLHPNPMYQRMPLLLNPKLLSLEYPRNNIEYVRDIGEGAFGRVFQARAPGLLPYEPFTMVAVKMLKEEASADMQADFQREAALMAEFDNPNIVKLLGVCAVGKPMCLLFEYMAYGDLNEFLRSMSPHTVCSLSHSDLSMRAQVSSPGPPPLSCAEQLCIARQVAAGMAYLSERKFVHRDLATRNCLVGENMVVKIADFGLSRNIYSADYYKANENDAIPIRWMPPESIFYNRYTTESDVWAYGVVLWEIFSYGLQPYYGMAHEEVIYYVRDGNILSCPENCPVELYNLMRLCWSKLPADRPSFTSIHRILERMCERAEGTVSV
Sequence of MYLK4 (human) (Q86YV6 whole entry, looked up): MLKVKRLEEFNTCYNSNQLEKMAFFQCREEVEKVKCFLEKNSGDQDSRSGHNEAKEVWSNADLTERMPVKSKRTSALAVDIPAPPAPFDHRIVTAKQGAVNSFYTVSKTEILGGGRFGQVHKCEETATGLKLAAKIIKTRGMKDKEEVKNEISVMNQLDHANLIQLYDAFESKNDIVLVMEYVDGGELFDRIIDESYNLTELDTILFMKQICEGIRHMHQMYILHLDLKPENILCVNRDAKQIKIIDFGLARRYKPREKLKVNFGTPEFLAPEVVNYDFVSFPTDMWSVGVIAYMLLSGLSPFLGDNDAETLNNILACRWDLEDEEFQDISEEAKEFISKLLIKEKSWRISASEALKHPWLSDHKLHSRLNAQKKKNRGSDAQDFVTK
Sequence of IKBKE (human) (Q14164 whole entry, looked up): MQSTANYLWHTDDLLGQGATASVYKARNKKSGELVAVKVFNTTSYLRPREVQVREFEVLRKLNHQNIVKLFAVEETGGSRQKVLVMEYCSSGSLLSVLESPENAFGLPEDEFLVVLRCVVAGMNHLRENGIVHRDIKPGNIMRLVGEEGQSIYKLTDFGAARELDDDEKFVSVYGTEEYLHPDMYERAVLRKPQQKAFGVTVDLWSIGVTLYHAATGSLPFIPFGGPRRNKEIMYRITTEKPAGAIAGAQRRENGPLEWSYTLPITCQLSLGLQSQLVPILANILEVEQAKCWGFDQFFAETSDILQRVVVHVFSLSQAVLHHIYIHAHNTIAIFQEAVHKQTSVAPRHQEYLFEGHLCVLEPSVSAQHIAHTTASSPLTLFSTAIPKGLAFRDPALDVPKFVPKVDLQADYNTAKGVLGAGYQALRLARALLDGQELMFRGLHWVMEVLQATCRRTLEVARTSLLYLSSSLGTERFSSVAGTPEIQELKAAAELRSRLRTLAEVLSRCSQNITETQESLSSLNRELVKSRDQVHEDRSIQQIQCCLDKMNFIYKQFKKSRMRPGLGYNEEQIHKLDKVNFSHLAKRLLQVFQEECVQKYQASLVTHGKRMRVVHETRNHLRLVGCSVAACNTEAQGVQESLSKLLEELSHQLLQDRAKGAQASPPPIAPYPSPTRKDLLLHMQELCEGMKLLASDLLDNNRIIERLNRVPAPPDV
Sequence of BRSK1 (human) (Q8TDC3 whole entry, looked up): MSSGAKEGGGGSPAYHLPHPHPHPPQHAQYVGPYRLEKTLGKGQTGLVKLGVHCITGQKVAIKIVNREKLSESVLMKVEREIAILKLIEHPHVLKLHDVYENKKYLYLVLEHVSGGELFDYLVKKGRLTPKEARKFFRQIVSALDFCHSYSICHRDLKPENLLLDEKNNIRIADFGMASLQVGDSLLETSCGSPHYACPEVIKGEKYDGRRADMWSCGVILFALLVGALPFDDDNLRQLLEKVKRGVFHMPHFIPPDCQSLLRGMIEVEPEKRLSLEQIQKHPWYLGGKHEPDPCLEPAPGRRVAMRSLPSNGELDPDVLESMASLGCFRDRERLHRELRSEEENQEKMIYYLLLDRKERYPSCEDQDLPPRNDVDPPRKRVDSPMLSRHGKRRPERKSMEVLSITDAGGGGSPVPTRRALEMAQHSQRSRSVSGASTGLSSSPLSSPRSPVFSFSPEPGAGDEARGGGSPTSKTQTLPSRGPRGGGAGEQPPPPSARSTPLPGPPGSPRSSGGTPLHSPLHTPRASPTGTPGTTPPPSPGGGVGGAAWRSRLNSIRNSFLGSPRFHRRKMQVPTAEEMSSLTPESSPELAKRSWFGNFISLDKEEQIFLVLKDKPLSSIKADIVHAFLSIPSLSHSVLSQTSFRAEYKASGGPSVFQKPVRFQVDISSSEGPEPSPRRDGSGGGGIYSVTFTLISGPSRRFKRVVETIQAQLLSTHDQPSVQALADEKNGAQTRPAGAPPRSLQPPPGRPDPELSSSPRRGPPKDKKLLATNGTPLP
Sequence of RPS6KA4 KD1 (human) (O75676 whole entry, looked up): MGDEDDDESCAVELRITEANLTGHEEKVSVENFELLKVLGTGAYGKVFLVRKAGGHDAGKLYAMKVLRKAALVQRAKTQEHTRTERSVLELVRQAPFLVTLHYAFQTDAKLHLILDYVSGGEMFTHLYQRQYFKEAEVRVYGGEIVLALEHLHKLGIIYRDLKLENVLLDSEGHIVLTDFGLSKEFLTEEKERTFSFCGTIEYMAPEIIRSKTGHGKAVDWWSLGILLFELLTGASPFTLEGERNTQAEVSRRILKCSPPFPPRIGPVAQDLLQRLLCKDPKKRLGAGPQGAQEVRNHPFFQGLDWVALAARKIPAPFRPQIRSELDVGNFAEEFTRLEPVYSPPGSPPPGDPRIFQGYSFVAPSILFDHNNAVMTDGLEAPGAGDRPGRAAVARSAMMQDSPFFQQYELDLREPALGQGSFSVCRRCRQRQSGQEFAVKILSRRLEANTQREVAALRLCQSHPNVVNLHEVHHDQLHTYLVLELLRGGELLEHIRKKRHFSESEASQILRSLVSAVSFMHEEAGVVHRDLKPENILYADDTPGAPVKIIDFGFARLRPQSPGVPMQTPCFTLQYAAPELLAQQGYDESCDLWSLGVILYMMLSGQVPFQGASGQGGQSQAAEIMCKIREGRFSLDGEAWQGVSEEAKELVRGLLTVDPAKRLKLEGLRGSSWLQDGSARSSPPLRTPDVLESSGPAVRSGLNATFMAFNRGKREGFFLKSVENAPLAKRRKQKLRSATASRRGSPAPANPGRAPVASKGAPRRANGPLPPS
Sequence of MKNK2 (human) (Q9HBH9 whole entry, looked up): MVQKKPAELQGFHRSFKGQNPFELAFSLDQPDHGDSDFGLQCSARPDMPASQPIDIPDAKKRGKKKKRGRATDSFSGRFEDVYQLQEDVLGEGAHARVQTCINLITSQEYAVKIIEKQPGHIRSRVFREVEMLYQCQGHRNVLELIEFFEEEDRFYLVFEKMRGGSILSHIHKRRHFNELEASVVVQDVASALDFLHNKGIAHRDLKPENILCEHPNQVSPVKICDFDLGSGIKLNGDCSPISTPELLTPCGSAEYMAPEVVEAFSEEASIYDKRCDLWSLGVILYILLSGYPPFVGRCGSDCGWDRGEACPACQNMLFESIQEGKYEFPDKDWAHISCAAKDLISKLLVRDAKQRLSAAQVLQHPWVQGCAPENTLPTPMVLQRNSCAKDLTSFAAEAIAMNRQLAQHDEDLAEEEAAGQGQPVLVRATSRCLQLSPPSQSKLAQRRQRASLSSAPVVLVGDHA

COc1cc(N2CCC(N3CCN(C)CC3)CC2)ccc1Nc1ncc(Cl)c(Nc2ccccc2S(=O)(=O)C(C)C)n1
kinase still bound, per cent of control (STK25 (human)): 40%
kinase still bound, per cent of control (ROCK2 (human)): 0.95%
kinase still bound, per cent of control [1]: 40%
kinase still bound, per cent of control (MST1R (human)): 3%
kinase still bound, per cent of control (RPS6KA1 KD2 (human)): 10%
kinase still bound, per cent of control (NEK9 (human)): 3.3%
kinase still bound, per cent of control (IKBKE (human)): 25%
kinase still bound, per cent of control [2]: 11%
kinase still bound, per cent of control (BMP2K (human)): 2.8%
kinase still bound, per cent of control (INSRR (human)): 0.35%
kinase still bound, per cent of control (MAPK7 (human)): 0%
kinase still bound, per cent of control (FGFR3 (human)): 2.6%
kinase still bound, per cent of control (EPHA8 (human)): 40%
kinase still bound, per cent of control (PRKD3 (human)): 0%
kinase still bound, per cent of control (BRSK1 (human)): 1.2%
kinase still bound, per cent of control (PAK1 (human)): 4.8%
kinase still bound, per cent of control (RPS6KA4 KD1 (human)): 4.4%
kinase still bound, per cent of control (MAPK15 (human)): 0.25%
kinase still bound, per cent of control (PAK2 (human)): 30%
kinase still bound, per cent of control (LATS1 (human)): 32%
kinase still bound, per cent of control (TNK2 (human)): 0%
kinase still bound, per cent of control (MUSK (human)): 0.35%
kinase still bound, per cent of control (MAPKAPK2 (human)): 40%
kinase still bound, per cent of control (TXK (human)): 6.9%
kinase still bound, per cent of control [3]: 4.2%
kinase still bound, per cent of control (MAP3K7 (human)): 2.2%
kinase still bound, per cent of control (INSR (human)): 0%
kinase still bound, per cent of control (MKNK2 (human)): 1.4%
kinase still bound, per cent of control (TAOK1 (human)): 0.1%
kinase still bound, per cent of control (MAP3K5 (human)): 40%
kinase still bound, per cent of control (CAMK4 (human)): 0.5%
kinase still bound, per cent of control (MAP3K10 (human)): 4.6%
kinase still bound, per cent of control (MYLK4 (human)): 40%
kinase still bound, per cent of control (PIK3CD (human)): 40%
kinase still bound, per cent of control (MAPK8 (human)): 5.2%
kinase still bound, per cent of control (YES1 (human)): 0.1%
kinase still bound, per cent of control (FLT4 (human)): 0.05%
kinase still bound, per cent of control (FER (human)): 0.05%
kinase still bound, per cent of control (PDGFRB (human)): 0.25%
kinase still bound, per cent of control (CAMK2A (human)): 1.2%

CCN1CCN(Cc2ccc(NC(=O)c3ccc(C)c(Oc4ccnc5[nH]ccc45)c3)cc2C(F)(F)F)CC1
kinase still bound, per cent of control [2]: 0%
kinase still bound, per cent of control (INSRR (human)): 23%
kinase still bound, per cent of control (FGFR3 (human)): 9.4%
kinase still bound, per cent of control (EPHA8 (human)): 0.1%
kinase still bound, per cent of control [4]: 1.2%
kinase still bound, per cent of control (MUSK (human)): 0.2%
kinase still bound, per cent of control (TXK (human)): 12%
kinase still bound, per cent of control [3]: 11%
kinase still bound, per cent of control (INSR (human)): 30%
kinase still bound, per cent of control (MKNK2 (human)): 4.2%
kinase still bound, per cent of control (TAOK1 (human)): 3%
kinase still bound, per cent of control [5]: 1%
kinase still bound, per cent of control (MAPK8 (human)): 0%
kinase still bound, per cent of control (YES1 (human)): 1.6%
kinase still bound, per cent of control (FLT4 (human)): 0.2%
kinase still bound, per cent of control (FER (human)): 0.5%
kinase still bound, per cent of control (PDGFRB (human)): 0%

CCN1CCN(Cc2ccc(NC(=O)c3ccc(C)c(/C=C/c4cnc(Nc5cc(N6CCNCC6)nc(C)n5)cn4)c3)cc2C(F)(F)F)CC1
kinase still bound, per cent of control (STK25 (human)): 35%
kinase still bound, per cent of control (ROCK2 (human)): 51%
kinase still bound, per cent of control [1]: 100%
kinase still bound, per cent of control (MST1R (human)): 85%
kinase still bound, per cent of control (RPS6KA1 KD2 (human)): 13%
kinase still bound, per cent of control (NEK9 (human)): 27%
kinase still bound, per cent of control (IKBKE (human)): 90%
kinase still bound, per cent of control [2]: 100%
kinase still bound, per cent of control (BMP2K (human)): 100%
kinase still bound, per cent of control (INSRR (human)): 44%
kinase still bound, per cent of control (MAPK7 (human)): 100%
kinase still bound, per cent of control (FGFR3 (human)): 12%
kinase still bound, per cent of control (EPHA8 (human)): 0.35%
kinase still bound, per cent of control (PRKD3 (human)): 71%
kinase still bound, per cent of control (BRSK1 (human)): 91%
kinase still bound, per cent of control (PAK1 (human)): 87%
kinase still bound, per cent of control (RPS6KA4 KD1 (human)): 100%
kinase still bound, per cent of control (MAPK15 (human)): 100%
kinase still bound, per cent of control [4]: 2.4%
kinase still bound, per cent of control (PAK2 (human)): 69%
kinase still bound, per cent of control (LATS1 (human)): 55%
kinase still bound, per cent of control (TNK2 (human)): 32%
kinase still bound, per cent of control (MUSK (human)): 5.2%
kinase still bound, per cent of control (MAPKAPK2 (human)): 100%
kinase still bound, per cent of control (TXK (human)): 4%
kinase still bound, per cent of control [3]: 94%
kinase still bound, per cent of control (MAP3K7 (human)): 0.75%
kinase still bound, per cent of control (INSR (human)): 65%
kinase still bound, per cent of control (MKNK2 (human)): 18%
kinase still bound, per cent of control (TAOK1 (human)): 7%
kinase still bound, per cent of control (MAP3K5 (human)): 100%
kinase still bound, per cent of control (CAMK4 (human)): 100%
kinase still bound, per cent of control (MAP3K10 (human)): 30%
kinase still bound, per cent of control [5]: 0.15%
kinase still bound, per cent of control (MYLK4 (human)): 100%
kinase still bound, per cent of control (PIK3CD (human)): 50%
kinase still bound, per cent of control (MAPK8 (human)): 24%
kinase still bound, per cent of control (YES1 (human)): 1.4%
kinase still bound, per cent of control (FLT4 (human)): 26%
kinase still bound, per cent of control (FER (human)): 78%
kinase still bound, per cent of control (PDGFRB (human)): 0%
kinase still bound, per cent of control (CAMK2A (human)): 100%

CCOc1cc(N2CCC(N3CCCCC3)CC2)ccc1Nc1nc(Nc2ccccc2S(=O)(=O)C(C)C)c2cn[nH]c2n1
kinase still bound, per cent of control (STK25 (human)): 95%
kinase still bound, per cent of control (ROCK2 (human)): 25%
kinase still bound, per cent of control [1]: 100%
kinase still bound, per cent of control (MST1R (human)): 100%
kinase still bound, per cent of control (RPS6KA1 KD2 (human)): 14%
kinase still bound, per cent of control (NEK9 (human)): 100%
kinase still bound, per cent of control (IKBKE (human)): 100%
kinase still bound, per cent of control [2]: 63%
kinase still bound, per cent of control (BMP2K (human)): 47%
kinase still bound, per cent of control (INSRR (human)): 0.4%
kinase still bound, per cent of control (MAPK7 (human)): 0.9%
kinase still bound, per cent of control (FGFR3 (human)): 94%
kinase still bound, per cent of control (EPHA8 (human)): 100%
kinase still bound, per cent of control (PRKD3 (human)): 36%
kinase still bound, per cent of control (BRSK1 (human)): 100%
kinase still bound, per cent of control (PAK1 (human)): 90%
kinase still bound, per cent of control (RPS6KA4 KD1 (human)): 100%
kinase still bound, per cent of control (MAPK15 (human)): 100%
kinase still bound, per cent of control [4]: 74%
kinase still bound, per cent of control (PAK2 (human)): 82%
kinase still bound, per cent of control (LATS1 (human)): 100%
kinase still bound, per cent of control (TNK2 (human)): 3.4%
kinase still bound, per cent of control (MUSK (human)): 100%
kinase still bound, per cent of control (MAPKAPK2 (human)): 100%
kinase still bound, per cent of control (TXK (human)): 100%
kinase still bound, per cent of control [3]: 1.3%
kinase still bound, per cent of control (MAP3K7 (human)): 59%
kinase still bound, per cent of control (INSR (human)): 0.3%
kinase still bound, per cent of control (MKNK2 (human)): 100%
kinase still bound, per cent of control (TAOK1 (human)): 33%
kinase still bound, per cent of control (MAP3K5 (human)): 100%
kinase still bound, per cent of control (CAMK4 (human)): 1%
kinase still bound, per cent of control (MAP3K10 (human)): 100%
kinase still bound, per cent of control [5]: 100%
kinase still bound, per cent of control (MYLK4 (human)): 100%
kinase still bound, per cent of control (PIK3CD (human)): 100%
kinase still bound, per cent of control (MAPK8 (human)): 4.3%
kinase still bound, per cent of control (YES1 (human)): 84%
kinase still bound, per cent of control (FLT4 (human)): 100%
kinase still bound, per cent of control (FER (human)): 9.1%
kinase still bound, per cent of control (PDGFRB (human)): 69%
kinase still bound, per cent of control (CAMK2A (human)): 34%
